Assay results reported in ChEMBL document CHEMBL1201862, “PubChem BioAssay data set” (2004).
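Cells were grown in 96-well plates and exposed to each compound for 48 hours at five concentrations; endpoints were interpolated linearly between bracketing concentrations, or set to the highest concentration if not reached. The concentration for 50% growth inhibition is given as GI50.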 The source made the active and inactive calls. Rule as the data show it: active = GI50 up to about 1.1 µM and inactive = higher.

Legend:
Experiment in all cases: inhibition of tumour cell growth, NCI panel, 48 h
K562 = tested on: K562
HOP-62 = tested on: HOP-62
OVCAR-5 = tested on: OVCAR-5
M14 = tested on: M14
SK-OV-3 = tested on: SK-OV-3
SK-MEL-2 = tested on: SK-MEL-2
HT-29 = tested on: HT-29
UACC-62 = tested on: UACC-62
OVCAR-3 = tested on: OVCAR-3
SW-620 = tested on: SW-620
OVCAR-8 = tested on: OVCAR-8
HL-60 = tested on: HL-60
786-0 = tested on: 786-0
OVCAR-4 = tested on: OVCAR-4
UO-31 = tested on: UO-31
HCT-116 = tested on: HCT-116
SNB-75 = tested on: SNB-75
LOX IMVI = tested on: LOX IMVI

Measured: GI50

C[N+](C)(C)CC(=O)N/N=C(/Cc1nc2c3c(ccc2nc1O)C(=O)c1ccccc1C3=O)C(=O)Nc1ccc(Cl)c(Cl)c1
inactive: K562 53.5 µM | HOP-62 35.9 µM | OVCAR-5 > 100 µM | M14 81.1 µM | SK-OV-3 23.9 µM | SK-MEL-2 91.2 µM | HT-29 > 100 µM | UACC-62 41.6 µM | OVCAR-3 30.2 µM | SW-620 35.2 µM | OVCAR-8 50.5 µM | HL-60 8.15 µM | 786-0 77.6 µM | OVCAR-4 87.9 µM | UO-31 6.84 µM | HCT-116 43.3 µM

Cc1cc(C)nc(NS(=O)(=O)c2ccc(Nc3c4ccc(Cl)cc4nc4c(C(=O)Nc5ccc(S(=O)(=O)N=C(N)N)cc5)cccc34)cc2)n1
inactive: K562 73.5 µM | SNB-75 57.7 µM | HOP-62 > 100 µM | OVCAR-5 > 100 µM | M14 > 100 µM | SK-OV-3 > 100 µM | HT-29 > 100 µM | UACC-62 70.8 µM | OVCAR-3 96.6 µM | OVCAR-8 > 100 µM | 786-0 > 100 µM | OVCAR-4 > 100 µM | UO-31 > 100 µM | LOX IMVI 49.9 µM | HCT-116 54.3 µM

CC(C)(C)c1cc(C(OCCl)(C(F)(F)F)C(F)(F)F)c2c(c1)C(C(F)(F)F)(C(F)(F)F)OC21c2ccccc2C(=O)c2ccccc21
inactive: K562 > 100 µM | SNB-75 > 100 µM | OVCAR-5 > 100 µM | M14 > 100 µM | SK-MEL-2 > 100 µM | HT-29 > 100 µM | OVCAR-3 > 100 µM | SW-620 > 100 µM | OVCAR-8 > 100 µM | 786-0 > 100 µM | OVCAR-4 > 100 µM | UO-31 > 100 µM | HCT-116 > 100 µM

COC(=O)CCCN(C)c1nc(N)n[nH]1
inactive: K562 > 100 µM | SNB-75 66.2 µM | HOP-62 > 100 µM | OVCAR-5 > 100 µM | M14 > 100 µM | SK-OV-3 > 100 µM | HT-29 > 100 µM | UACC-62 > 100 µM | OVCAR-3 > 100 µM | SW-620 > 100 µM | OVCAR-8 > 100 µM | HL-60 > 100 µM | 786-0 > 100 µM | OVCAR-4 > 100 µM | UO-31 > 100 µM | LOX IMVI > 100 µM | HCT-116 > 100 µM

[N-]=[N+]=N[C@H]1C[C@@H](CO)O[C@H]1n1cnc2c(N)ncnc21
inactive: SNB-75 > 100 µM | HOP-62 > 100 µM | OVCAR-5 > 100 µM | M14 > 100 µM | SK-MEL-2 > 100 µM | HT-29 > 100 µM | OVCAR-3 > 100 µM | SW-620 > 100 µM | OVCAR-8 > 100 µM | HL-60 > 100 µM | 786-0 > 100 µM | OVCAR-4 > 100 µM | UO-31 > 100 µM | LOX IMVI > 100 µM | HCT-116 > 100 µM

CC12Oc3ccc4ccccc4c3C1c1c(ccc3ccccc13)O2 (stereo unspecified)
inactive: K562 > 100 µM | SNB-75 43.3 µM | OVCAR-5 > 100 µM | M14 > 100 µM | SK-OV-3 > 100 µM | SK-MEL-2 > 100 µM | HT-29 > 100 µM | UACC-62 > 100 µM | OVCAR-3 > 100 µM | SW-620 > 100 µM | OVCAR-8 > 100 µM | 786-0 > 100 µM | OVCAR-4 35.9 µM | UO-31 > 100 µM | LOX IMVI > 100 µM | HCT-116 > 100 µM

C/C(=C1/N=C(c2cc([N+](=O)[O-])ccc2Cl)N(c2cccc(C)c2)C1=O)c1cc2ccccc2oc1=O
inactive: K562 33.7 µM | SNB-75 > 100 µM | HOP-62 > 100 µM | OVCAR-5 > 100 µM | M14 > 100 µM | SK-OV-3 > 100 µM | SK-MEL-2 > 100 µM | HT-29 58.5 µM | UACC-62 21.8 µM | OVCAR-3 28.3 µM | SW-620 29.4 µM | OVCAR-8 > 100 µM | HL-60 28.7 µM | 786-0 > 100 µM | UO-31 > 100 µM | LOX IMVI 16.7 µM | HCT-116 47.4 µM

CCOC(=O)NC(=O)c1cn(CCN2CCN(c3ncnc4[nH]cnc34)CC2)c(=O)[nH]c1=O
inactive: K562 > 100 µM | SNB-75 > 100 µM | HOP-62 > 100 µM | OVCAR-5 > 100 µM | M14 > 100 µM | SK-OV-3 > 100 µM | SK-MEL-2 > 100 µM | HT-29 > 100 µM | UACC-62 > 100 µM | OVCAR-3 > 100 µM | SW-620 > 100 µM | OVCAR-8 > 100 µM | HL-60 > 100 µM | 786-0 > 100 µM | UO-31 > 100 µM | LOX IMVI > 100 µM | HCT-116 > 100 µM

Cc1nc(-c2nc(C)c(C(=O)/C=C/c3ccc([N+](=O)[O-])cc3)s2)sc1C(=O)/C=C/c1ccc([N+](=O)[O-])cc1
inactive: K562 > 100 µM | SNB-75 > 100 µM | HOP-62 > 100 µM | OVCAR-5 > 100 µM | M14 > 100 µM | SK-OV-3 > 100 µM | SK-MEL-2 > 100 µM | HT-29 > 100 µM | UACC-62 > 100 µM | OVCAR-3 > 100 µM | SW-620 > 100 µM | OVCAR-8 > 100 µM | HL-60 > 100 µM | 786-0 > 100 µM | UO-31 > 100 µM | LOX IMVI > 100 µM | HCT-116 > 100 µM

C#CCNC(=O)ON1C(=O)CCC1=O
inactive: K562 > 100 µM | SNB-75 > 100 µM | HOP-62 > 100 µM | OVCAR-5 > 100 µM | SK-OV-3 > 100 µM | SK-MEL-2 > 100 µM | HT-29 > 100 µM | UACC-62 > 100 µM | OVCAR-3 > 100 µM | SW-620 > 100 µM | OVCAR-8 > 100 µM | HL-60 > 100 µM | 786-0 > 100 µM | OVCAR-4 > 100 µM | UO-31 > 100 µM | LOX IMVI > 100 µM | HCT-116 > 100 µM

Cc1cc2c(C)nn(Cc3ccccc3)c2c(C(N)=O)c1C
inactive: K562 > 100 µM | SNB-75 21.6 µM | HOP-62 > 100 µM | OVCAR-5 > 100 µM | M14 > 100 µM | SK-OV-3 > 100 µM | SK-MEL-2 > 100 µM | HT-29 > 100 µM | UACC-62 > 100 µM | OVCAR-3 > 100 µM | SW-620 > 100 µM | OVCAR-8 > 100 µM | 786-0 > 100 µM | OVCAR-4 > 100 µM | UO-31 67.9 µM | LOX IMVI > 100 µM | HCT-116 > 100 µM

O=C(/C=C/c1ccccc1Cl)c1ccc(Cl)cc1Cl
inactive: K562 3.02 µM | SNB-75 18.7 µM | HOP-62 23.2 µM | OVCAR-5 17.1 µM | M14 18.1 µM | SK-OV-3 19.4 µM | HT-29 14.3 µM | UACC-62 14.5 µM | OVCAR-3 17.7 µM | SW-620 1.74 µM | OVCAR-8 15.7 µM | HL-60 16.5 µM | 786-0 16.6 µM | OVCAR-4 15.6 µM | UO-31 21.7 µM | HCT-116 8.47 µM

CCOC(=O)N1CCN(C=S)CC1
inactive: K562 > 100 µM | SNB-75 > 100 µM | HOP-62 > 100 µM | OVCAR-5 > 100 µM | M14 > 100 µM | SK-OV-3 > 100 µM | SK-MEL-2 > 100 µM | HT-29 > 100 µM | UACC-62 > 100 µM | OVCAR-3 > 100 µM | SW-620 > 100 µM | OVCAR-8 > 100 µM | HL-60 > 100 µM | 786-0 > 100 µM | UO-31 > 100 µM | LOX IMVI > 100 µM | HCT-116 > 100 µM

Clc1ncnc2c1ncn2CCCCCCCCCCCCn1cnc2c(Cl)ncnc21
inactive: K562 1.15 µM | HOP-62 18.6 µM | OVCAR-5 27.7 µM | M14 15.3 µM | SK-OV-3 16.4 µM | SK-MEL-2 13.4 µM | HT-29 9.82 µM | UACC-62 13.9 µM | OVCAR-3 11.2 µM | SW-620 22.4 µM | OVCAR-8 11.1 µM | HL-60 2.7 µM | 786-0 17.7 µM | OVCAR-4 11.1 µM | UO-31 13.1 µM | LOX IMVI 1.43 µM | HCT-116 10.7 µM

Cc1ccc(C2=NN(C)COC2C(F)(F)F)cc1 (stereo unspecified)
inactive: K562 > 100 µM | SNB-75 21.2 µM | HOP-62 > 100 µM | OVCAR-5 > 100 µM | M14 > 100 µM | SK-OV-3 > 100 µM | SK-MEL-2 > 100 µM | HT-29 > 100 µM | UACC-62 18.6 µM | OVCAR-3 > 100 µM | SW-620 > 100 µM | OVCAR-8 > 100 µM | HL-60 > 100 µM | 786-0 > 100 µM | OVCAR-4 > 100 µM | UO-31 > 100 µM | HCT-116 > 100 µM

c1ccc([P+](CCC[P+](c2ccccc2)(c2ccccc2)c2ccccc2)(c2ccccc2)c2ccccc2)cc1
inactive: K562 8.2 µM | SNB-75 31.8 µM | HOP-62 49.3 µM | OVCAR-5 71.1 µM | M14 71.9 µM | SK-OV-3 > 100 µM | HT-29 34.4 µM | UACC-62 26.1 µM | OVCAR-3 13.5 µM | SW-620 36.7 µM | OVCAR-8 32.6 µM | HL-60 10.7 µM | 786-0 > 100 µM | OVCAR-4 57 µM | UO-31 > 99.5 µM | LOX IMVI 23.7 µM | HCT-116 20.1 µM
